{"source": "patent US10780076B2", "about": "“Inhibition of cancer cell motility” (Northwestern University, priority 2014, dated 2020)", "key": {"[1]": {"test_system": "PC3-M cells", "test": "Single cell motility assay with KBU2046-biotin", "type": "cell-based, human", "settings": "10 μM, three days", "experimental": "PC3-M cells were pre-treated with 10 μM KBU2046 or with KBU2046-biotin for three days, and single cell motility assays conducted.\nFIGS. 23A-C. […] PC3-M cells were pre-treated with 10 μM KBU2046 or with KBU2046-biotin for three days, and single cell motility assays conducted."}, "[2]": {"test_system": "array of over 9,000 human proteins", "test": "ProtoArray Human Protein Microarray hybridization", "type": "binding", "experimental": "FIGS. 19A-D. KBU2046 binds to intact cells, but not to isolated proteins. (A) Chemical structure of KBU2046 linked to biotin (KBU2046-biotin). […] PC3-M cells were pre-treated with 10 μM KBU2046 or with KBU2046-biotin for three days, and single cell motility assays conducted. Data are the mean±SEM. […] PC3-M cells were labeled with […]+/−10 μM free KBU2046, followed by detection with FITC-streptavidin, and visualization by fluorescent microscopy (with equal exposure times). (D) Protein array hybridization. KBU2046-biotin was hybridized to ProtoArray® Human Protein Microarray's at 0.5 and 10 μM with and without 10-fold excess free KBU2046. Proteins were first sought that met the following criteria, and did so at both 0.5 and 10 μM concentrations of KBU2046-biotin (in the absence of free KBU2046): Z-Score greater than 2.5, Z-Factor greater than 0.5, CI P-value less than 0.05, negative control value <2,000 (relative fluorescence units; RFUs), and a signal/negative control signal of >10 and >5 for 10 μM and 0.5 μM conditions, respectively. This yielded 3 proteins, shown in table, for an initial hit rate of 0.03%. It was then required that free KBU2046 inhibit binding by >75% of the two remaining candidates, eliminating isovaleryl-CoA dehydrogenase (ICD). […] The positive control used in protein arrays was staurosporine. Staurosporine is similar to genistein in that both are small compound natural products that are broad spectrum kinase inhibitors. […] The vast majority of these proteins were kinases. Both HSP90β and CDC37 were present on the protein arrays, and were not bound by KBU2046-biotin."}, "[3]": {"test_system": "PC3-M cells", "test": "Cell labeling with FITC-streptavidin detection", "type": "cell-based, human", "settings": "+/−10 μM free KBU2046"}, "[4]": {"test_system": "protein phosphorylation (kinome) in PC3-M and PC3 cells", "test": "KinomeView phospho-motif antibody screen", "type": "cell-based, human", "settings": "10 μM, 3 days, ±TGFβ", "experimental": "FIG. 14A-D. Proteomic analysis of the effects of KBU2046 on the kinome. Screening for effects on the kinome. PC3-M cells were pre-treated with 10 μM KBU2046, genistein or vehicle control for 3 days, then with ±TGFB, as indicated. Resultant cell lysate, as well as lysate from tumors from mice treated with 150 mg/kg KBU2046 or control mice (from manuscript FIG. 3A), were then probed with the KinomeView® panel of antibodies by Western blot. In instances where KBU2046 was inhibiting protein phosphorylation in cells and in tumors, a repeat experiment of PC3-M cells was conducted. In addition to including PC3-M cells, experiments were expanded to examine effects on PC3 cells. […] (C,D) All other Western blots of phospho-motif antibodies that were evaluated on initial screen. NI=tumor not informative; this denotes a tumor sample that yielded an abnormal coomassie blue staining pattern.\nScreening for changes in the kinome induced by KBU2046 were evaluated with the Kinoview™ assay system. […]\nThe KinomeView® panel of antibodies (Cell Signaling Technology, Inc.) detects established protein phosphorylation motifs, and were was to probe for KBU2046-induced changes in protein phosphorylation (FIG. 5A; FIGS. 14A-D). […] Genistein was evaluated under identical treatment conditions for comparison. […]"}, "[5]": {"molecular_target": "T1, MKK4 (Homo sapiens, UniProt P45985)", "T1 sequence (P45985 1-399)": "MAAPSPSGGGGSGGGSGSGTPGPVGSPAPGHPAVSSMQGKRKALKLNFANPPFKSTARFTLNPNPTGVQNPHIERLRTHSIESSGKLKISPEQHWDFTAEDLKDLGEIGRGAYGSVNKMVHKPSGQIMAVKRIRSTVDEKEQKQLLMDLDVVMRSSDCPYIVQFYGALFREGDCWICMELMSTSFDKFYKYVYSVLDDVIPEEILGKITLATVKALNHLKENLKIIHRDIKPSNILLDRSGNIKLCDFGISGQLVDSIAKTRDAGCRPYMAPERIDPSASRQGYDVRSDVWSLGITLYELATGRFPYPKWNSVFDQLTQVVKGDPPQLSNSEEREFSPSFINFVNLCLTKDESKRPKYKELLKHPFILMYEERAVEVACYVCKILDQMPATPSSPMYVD", "settings": "low nanomolar concentrations; cited from earlier work"}}}
{"smiles": "O=C(CCCC[C@@H]1SC[C@@H]2NC(=O)N[C@@H]21)NCCOCCOCCOCCOc1ccc2c(c1)OCC(c1ccc(F)cc1)C2=O", "note": "(stereo partly shown) [KBU2046-biotin]", "values": [{"measurement": "biological activity in single cell motility", "setting": "[1]", "value": "biologically active"}, {"measurement": "binding to protein array", "setting": "[2]; 0.5 and 10 μM", "value": "lack of binding"}, {"measurement": "initial hit rate on protein array", "setting": "[2]; 0.5 and 10 μM, before competition criterion", "value": 0.03, "unit": "%"}, {"measurement": "labeling of intact cells", "setting": "[3]", "value": "labels cells in a manner that can be competed off"}]}
{"smiles": "O=c1c(-c2ccc(O)cc2)coc2cc(O)cc(O)c12", "note": "[genistein, 4′,5,7-trihydroxyisoflavone]", "values": [{"measurement": "changes in protein phosphorylation", "setting": "[4]", "value": "widespread changes in protein phosphorylation"}, {"measurement": "inhibition of MKK4 kinase activity (literature)", "setting": "[5]", "value": "inhibited the kinase activity"}]}
{"smiles": "CN[C@@H]1C[C@H]2O[C@@](C)([C@@H]1OC)n1c3ccccc3c3c4c(c5c6ccccc6n2c5c31)C(=O)NC4", "note": "[staurosporine, reference compound]", "values": [{"measurement": "number of proteins bound at >/=10 fold above background", "setting": "[2]; positive control", "value": 214, "unit": "proteins"}]}
